According to ChEMBL document CHEMBL5252521, “Discovery and development of kibdelomycin, a new class of broad-spectrum antibiotics targeting the clinically proven bacterial type II topoisomerase” (Bioorg Med Chem, 2016):
Values after ≈ are worked out from the molar mass of the structure shown.

Key:
[1] = Inhibition of Escherichia coli DNA topoisomerase 4 decatenation activity
Haemophilus influenzae = experiment: Antibacterial activity against wild type Haemophilus influenzae incubated for 20 hrs by two-fold serial dilution method; assay type: functional
Staphylococcus aureus [2] = experiment: Antibacterial activity against methicillin-resistant Staphylococcus aureus incubated for 20 hrs by two-fold serial dilution method; assay type: functional
Topoisomerase IV = Topoisomerase IV (Staphylococcus aureus, UniProt P0C1S7+P0C1U9); experiment: Inhibition of Staphylococcus aureus DNA topoisomerase 4 decatenation activity; assay type: protein-complex assay
Sequence of Topoisomerase IV (P0C1U9 whole entry): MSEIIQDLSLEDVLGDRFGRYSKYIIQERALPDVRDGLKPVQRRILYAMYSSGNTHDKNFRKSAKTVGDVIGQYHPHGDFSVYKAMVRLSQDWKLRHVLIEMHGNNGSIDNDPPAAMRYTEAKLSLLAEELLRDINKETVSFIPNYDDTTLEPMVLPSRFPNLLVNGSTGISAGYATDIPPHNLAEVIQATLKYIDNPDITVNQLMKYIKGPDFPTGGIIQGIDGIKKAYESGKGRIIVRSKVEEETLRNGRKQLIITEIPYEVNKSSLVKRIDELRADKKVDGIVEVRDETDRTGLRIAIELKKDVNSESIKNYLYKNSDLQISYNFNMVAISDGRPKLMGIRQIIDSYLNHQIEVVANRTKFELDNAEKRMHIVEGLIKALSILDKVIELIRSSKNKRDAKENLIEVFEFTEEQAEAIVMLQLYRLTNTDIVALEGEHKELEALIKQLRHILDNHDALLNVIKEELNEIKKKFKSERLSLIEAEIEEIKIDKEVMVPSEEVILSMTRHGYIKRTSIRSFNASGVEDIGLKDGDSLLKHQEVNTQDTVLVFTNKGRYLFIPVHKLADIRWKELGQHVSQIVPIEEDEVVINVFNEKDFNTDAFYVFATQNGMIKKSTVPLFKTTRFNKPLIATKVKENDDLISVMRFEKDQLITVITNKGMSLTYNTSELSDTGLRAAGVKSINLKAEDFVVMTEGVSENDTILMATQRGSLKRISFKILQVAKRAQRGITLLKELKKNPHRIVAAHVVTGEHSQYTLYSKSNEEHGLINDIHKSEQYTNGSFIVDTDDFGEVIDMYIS
Sequence of Topoisomerase IV (P0C1S7 whole entry): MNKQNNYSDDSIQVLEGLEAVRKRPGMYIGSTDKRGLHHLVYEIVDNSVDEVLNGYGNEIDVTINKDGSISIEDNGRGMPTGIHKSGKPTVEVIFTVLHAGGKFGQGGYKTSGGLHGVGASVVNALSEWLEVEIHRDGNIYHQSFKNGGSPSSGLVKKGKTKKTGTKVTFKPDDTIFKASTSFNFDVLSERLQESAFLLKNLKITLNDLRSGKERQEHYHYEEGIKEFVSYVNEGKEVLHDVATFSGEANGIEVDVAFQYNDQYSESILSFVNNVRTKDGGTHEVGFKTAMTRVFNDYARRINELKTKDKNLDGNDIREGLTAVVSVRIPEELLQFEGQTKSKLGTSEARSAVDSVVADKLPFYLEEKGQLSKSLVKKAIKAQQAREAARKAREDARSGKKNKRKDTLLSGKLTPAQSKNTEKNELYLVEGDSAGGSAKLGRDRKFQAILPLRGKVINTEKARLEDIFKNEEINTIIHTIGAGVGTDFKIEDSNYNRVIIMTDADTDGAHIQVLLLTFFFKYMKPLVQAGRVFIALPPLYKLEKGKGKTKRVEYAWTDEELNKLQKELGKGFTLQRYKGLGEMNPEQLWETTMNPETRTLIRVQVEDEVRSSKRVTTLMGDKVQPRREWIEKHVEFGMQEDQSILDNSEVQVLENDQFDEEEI

Staphylococcus aureus [3] = experiment: Antibacterial activity against wild type Staphylococcus aureus incubated for 20 hrs in presence of 50% of human serum by two-fold serial dilution method; assay type: functional
Staphylococcus aureus [4] = experiment: Antibacterial activity against wild type Staphylococcus aureus incubated for 20 hrs by two-fold serial dilution method; assay type: functional
Moraxella catarrhalis = experiment: Antibacterial activity against wild type Moraxella catarrhalis incubated for 20 hrs by two-fold serial dilution method; assay type: functional
Escherichia coli [5] = experiment: Antibacterial activity against wild type Escherichia coli incubated for 20 hrs by two-fold serial dilution method; assay type: functional
[6] = Inhibition of Escherichia coli DNA topoisomerase 4 ATPase activity
Pseudomonas aeruginosa [7] = experiment: Antibacterial activity against wild type Pseudomonas aeruginosa incubated for 20 hrs by two-fold serial dilution method; assay type: functional
Enterococcus faecalis = experiment: Antibacterial activity against wild type Enterococcus faecalis incubated for 20 hrs by two-fold serial dilution method; assay type: functional
Streptococcus pneumoniae [8] = experiment: Antibacterial activity against wild type Streptococcus pneumoniae incubated for 20 hrs in presence of 2.5% lysed horse blood by two-fold serial dilution method; assay type: functional
Escherichia coli [9] = experiment: Antibacterial activity against wild type Escherichia coli; assay type: functional
DNA gyrase [10] = target: DNA gyrase (Escherichia coli, UniProt P0AES4+P0AES6); experiment: Inhibition of Escherichia coli DNA gyrase supercoiling activity; assay type: protein-complex assay
Staphylococcus aureus [11] = experiment: Antibacterial activity against wild type Staphylococcus aureus; assay type: functional
Pseudomonas aeruginosa [12] = experiment: Antibacterial activity against wild type Pseudomonas aeruginosa; assay type: functional
DNA gyrase [13] = target: DNA gyrase (Staphylococcus aureus, UniProt P0A0K8+P20831); experiment: Inhibition of Staphylococcus aureus DNA gyrase supercoiling activity; assay type: protein-complex assay
Sequence of DNA gyrase (Staphylococcus aureus, UniProt P0A0K8+P20831) (P0A0K8 whole entry): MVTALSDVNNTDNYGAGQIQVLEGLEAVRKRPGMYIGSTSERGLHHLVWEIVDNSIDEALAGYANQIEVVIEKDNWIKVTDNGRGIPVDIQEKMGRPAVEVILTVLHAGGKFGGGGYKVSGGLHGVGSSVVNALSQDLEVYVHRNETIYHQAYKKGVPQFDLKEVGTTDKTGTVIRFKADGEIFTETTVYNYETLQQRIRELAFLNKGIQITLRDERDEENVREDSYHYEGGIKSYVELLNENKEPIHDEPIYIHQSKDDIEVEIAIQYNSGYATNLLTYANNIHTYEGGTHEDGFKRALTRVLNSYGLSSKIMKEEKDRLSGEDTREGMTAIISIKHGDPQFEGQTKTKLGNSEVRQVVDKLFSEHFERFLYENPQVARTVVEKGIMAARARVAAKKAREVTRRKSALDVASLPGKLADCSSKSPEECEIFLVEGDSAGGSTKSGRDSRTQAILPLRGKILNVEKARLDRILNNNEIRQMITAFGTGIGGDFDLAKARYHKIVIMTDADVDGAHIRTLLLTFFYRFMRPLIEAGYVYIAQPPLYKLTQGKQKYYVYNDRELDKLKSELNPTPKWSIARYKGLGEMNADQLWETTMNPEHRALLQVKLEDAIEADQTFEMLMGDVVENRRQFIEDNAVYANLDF
Sequence of DNA gyrase (Staphylococcus aureus, UniProt P0A0K8+P20831) (P20831 whole entry): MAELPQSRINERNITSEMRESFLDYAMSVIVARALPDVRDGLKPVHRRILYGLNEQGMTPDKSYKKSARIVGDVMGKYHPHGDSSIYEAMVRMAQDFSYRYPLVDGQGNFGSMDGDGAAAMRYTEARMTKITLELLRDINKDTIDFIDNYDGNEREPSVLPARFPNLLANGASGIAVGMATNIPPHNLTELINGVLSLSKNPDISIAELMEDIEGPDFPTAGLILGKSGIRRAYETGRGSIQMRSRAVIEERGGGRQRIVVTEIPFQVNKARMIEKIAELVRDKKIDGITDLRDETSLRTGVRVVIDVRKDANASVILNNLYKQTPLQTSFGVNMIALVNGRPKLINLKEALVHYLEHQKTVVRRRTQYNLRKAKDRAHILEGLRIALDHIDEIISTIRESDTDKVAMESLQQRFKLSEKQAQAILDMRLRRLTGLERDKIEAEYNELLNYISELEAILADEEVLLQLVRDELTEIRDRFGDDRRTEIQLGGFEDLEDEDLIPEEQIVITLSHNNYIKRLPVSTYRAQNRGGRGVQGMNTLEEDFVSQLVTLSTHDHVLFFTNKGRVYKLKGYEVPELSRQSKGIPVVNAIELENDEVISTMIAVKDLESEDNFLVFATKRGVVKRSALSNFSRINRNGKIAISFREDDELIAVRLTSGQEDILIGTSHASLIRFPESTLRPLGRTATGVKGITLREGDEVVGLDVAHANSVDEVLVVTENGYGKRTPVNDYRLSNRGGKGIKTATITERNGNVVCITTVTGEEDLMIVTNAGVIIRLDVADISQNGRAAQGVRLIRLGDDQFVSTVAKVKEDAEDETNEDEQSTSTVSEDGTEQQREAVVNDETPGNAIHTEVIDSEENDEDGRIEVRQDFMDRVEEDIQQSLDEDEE

Streptococcus pneumoniae [14] = experiment: Antibacterial activity against wild type Streptococcus pneumoniae in presence of 2.5% lysed horse blood; assay type: functional
Acinetobacter baumannii = experiment: Antibacterial activity against wild type Acinetobacter baumannii incubated for 20 hrs by two-fold serial dilution method; assay type: functional
Enterococcus faecium = experiment: Antibacterial activity against vancomycin-resistant Enterococcus faecium incubated for 20 hrs by two-fold serial dilution method; assay type: functional

SMILES	IC50 [1] [µM]	MIC (Haemophilus influenzae) [µg/mL]	MIC (Staphylococcus aureus [2]) [µg/mL]	IC50 (Topoisomerase IV) [µM]	MIC (Staphylococcus aureus [3]) [µg/mL]	MIC (Staphylococcus aureus [4]) [µg/mL]	MIC (Moraxella catarrhalis) [µg/mL]	MIC (Escherichia coli [5]) [µg/mL]	IC50 [6] [nM]	MIC (Pseudomonas aeruginosa [7]) [µg/mL]	MIC (Enterococcus faecalis) [µg/mL]	MIC (Streptococcus pneumoniae [8]) [µg/mL]	MIC (Escherichia coli [9]) [µg/mL]	IC50 (DNA gyrase [10]) [nM]	MIC (Staphylococcus aureus [11]) [µg/mL]	MIC (Pseudomonas aeruginosa [12]) [µg/mL]	IC50 (DNA gyrase [13]) [nM]	MIC (Streptococcus pneumoniae [14]) [µg/mL]	MIC (Acinetobacter baumannii) [µg/mL]	MIC (Enterococcus faecium) [µg/mL]
CO[C@@H]1[C@@H](OC(N)=O)[C@@H](O)[C@H](Oc2ccc3c(O)c(NC(=O)c4ccc(O)c(CC=C(C)C)c4)c(=O)oc3c2C)OC1(C)C [NOVOBIOCIN]	10	0.12 (≈ 0.196 µM)	0.06 (≈ 0.0979 µM)	35	16	0.25 (≈ 0.408 µM)	> 32	> 32	450	100 (≈ 163 µM)	32 (≈ 52.2 µM)	1								
Cc1c(O)cc(O)c2c1C(=O)OC[C@H](NC(=O)[C@@H]1[C@H](O)CCN1C(=O)[C@@H](N)CO)C(=O)N[C@H](C(=O)N[C@@H](C)C(=O)O)CSC2													> 128	50	> 128					
CO[C@@H]1[C@@H](OC(=O)c2ccc(C)[nH]2)[C@@H](O)[C@H](Oc2ccc3c(O)c(NC(=O)c4c[nH]c(C(=O)Nc5c(O)c6ccc(O[C@@H]7OC(C)(C)[C@H](OC)[C@@H](OC(=O)c8ccc(C)[nH]8)[C@H]7O)c(C)c6oc5=O)c4C)c(=O)oc3c2C)OC1(C)C	5			100									6.25 (≈ 5.63 µM)	30	0.0012 (≈ 0.00108 µM)	12.5 (≈ 11.3 µM)	6	0.78		
C[C@H]1COc2c(N3CCN(C)CC3)c(F)cc3c(=O)c(C(=O)O)cn1c23.C[C@H]1COc2c(N3CCN(C)CC3)c(F)cc3c(=O)c(C(=O)O)cn1c23.O [LEVOFLOXACIN]		< 0.015	32			0.125	1	0.031		0.5									0.125	4
CO[C@@H]1[C@@H](OC(=O)c2ccc(C)[nH]2)[C@@H](O)[C@H](Oc2ccc3c(O)c(NC(=O)c4ccc(O)c(CC=C(C)C)c4)c(=O)oc3c2Cl)OC1(C)C [CHLOROBIOCIN]	3			10											< 0.06			2		
